Where a name gives a salt, the structure may show the parent alone.
Each molecule was assayed on Escherichia coli ATCC 25922 (assay: 50% growth inhibitory concentration (IC50) determination, Iso-Sensitest broth dilution). Conditions: Escherichia coli, ATCC25922, 16 h, strain Escherichia coli ATCC 25922; 10-point broth dilution, optical density at 600 nm over 16 h; read-out: Escherichia coli growth inhibition IC50.
Type: cell-based
Outline: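 Growth was tracked as optical density at 600 nm every 20 minutes for 16 h at 35±2° C. Compounds from DMSO stocks were serially diluted twofold over 10 points (e.g. 50–0.097 μM final) in Iso-Sensitest broth. Inhibition computed in log-phase growth to give IC50.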

| IC50 [nM] | Compound |
| --- | --- |
| 225 | Cc1nc(N(C)C)cc2c1CC(CNCCC1CN(c3ccc4c(n3)NC(=O)CO4)C(=O)O1)C2 (centres unmarked) [Example 419, 6-[5-[2-[[3-(Dimethylamino)-1-methyl-6,7-dihydro-5H-cyclopenta[c]pyridin-6-yl]methylamino]ethyl]-2-oxo-1,3-oxazolidin-3-yl]-4H-pyrido[3,2-b][1,4]oxazin-3-one] |
| < 97.7 | O=C1COc2ccc(N3CC(CCNCC4Cc5cncc(F)c5C4)OC3=O)nc2N1 (centres unmarked) [Example 288, 6-[5-[2-[(4-fluoro-6,7-dihydro-5H-cyclopenta[c]pyridin-6-yl)methylamino]ethyl]-2-oxo-1,3-oxazolidin-3-yl]-4H-pyrido[3,2-b][1,4]oxazin-3-one] |
| < 97.7 | N#Cc1cccc2c1CC(CCN1CC3(C1)CN(c1ccc4c(n1)NC(=O)CO4)C(=O)O3)C2 (centres unmarked) [Example 33, 2-[2-[6-oxo-7-(3-oxo-4H-pyrido[3,2-b][1,4]oxazin-6-yl)-5-oxa-2,7-diazaspiro[3.4]octan-2-yl]ethyl]-2,3-dihydro-1H-indene-4-carbonitrile] |
| 95.1 | Cc1nc2c(c3c1CC(CNCCC1CN(c4ccc5c(n4)NC(=O)CO5)C(=O)O1)C3)CCN2C (centres unmarked) [Example 416, 6-[5-[2-[(5,8-dimethyl-5,7-diazatricyclo[7.3.0.0^2,6]dodeca-1,6,8-trien-11-yl)methylamino]ethyl]-2-oxo-1,3-oxazolidin-3-yl]-4H-pyrido[3,2-b][1,4]oxazin-3-one] |
| 153 | N#Cc1cccc2c1CC(CN[C@H]1C[C@]3(CN(c4ccc5c(n4)NC(=O)CO5)C(=O)O3)C1)C2 (stereo partly drawn) [Example 183, 2-[[[2,4-cis-6-oxo-7-(3-oxo-4H-pyrido[3,2-b][1,4]oxazin-6-yl)-5-oxa-7-azaspiro[3.4]octan-2-yl]amino]methyl]-2,3-dihydro-1H-indene-4-carbonitrile] |
| 868 | Cc1nccc2c1CC(CNCCC1CN(c3ccc4c(n3)NC(=O)CO4)C(=O)O1)C2N (racemic) [Example 130, 6-[2-oxo-5-[2-[(rac-5,6-trans-5-amino-1-methyl-6,7-dihydro-5H-cyclopenta[c]pyridin-6-yl)methylamino]ethyl]-1,3-oxazolidin-3-yl]-4H-pyrido[3,2-b][1,4]oxazin-3-one; formic acid] |
| 8530 | O=C1COc2ccc(N3CC(CNC4Cc5cccc(Cl)c5C4)OC3=O)nc2N1 (centres unmarked) [Example 22, 6-[5-[[(4-chloro-2,3-dihydro-1H-inden-2-yl)amino]methyl]-2-oxo-1,3-oxazolidin-3-yl]-4H-pyrido[3,2-b][1,4]oxazin-3-one] |
| ≤ 97.7 | COc1ncc(F)c2c1CC(CNCCC1CN(c3ccc4c(n3)NC(=O)CO4)C(=O)O1)C2 (centres unmarked) [Example 70, 6-[5-[2-[(4-fluoro-1-methoxy-6,7-dihydro-5H-cyclopenta[c]pyridin-6-yl)methylamino]ethyl]-2-oxo-oxazolidin-3-yl]-4H-pyrido[3,2-b][1,4]oxazin-3-one] |
| < 97.7 | O=C1COc2ncc(N3CC(C4CCN(C5Cc6cccc(F)c6C5)CC4)OC3=O)nc2N1 (centres unmarked) [Example 350, 6-[5-[1-(4-fluoro-2,3-dihydro-1H-inden-2-yl)piperidin-4-yl]-2-oxo-1,3-oxazolidin-3-yl]-4H-pyrazino[2,3-b][1,4]oxazin-3-one] |
| 164 | N#Cc1cccc2c1CC(NCC(O)CC1CN(c3cnc4c(n3)NC(=O)CO4)C(=O)O1)C2 (single isomer, unassigned; isomer a) [Example 81, 2-[[2-hydroxy-3-[2-oxo-3-(3-oxo-4H-pyrazino[2,3-b][1,4]oxazin-6-yl)-1,3-oxazolidin-5-yl]propyl]amino]-2,3-dihydro-1H-indene-4-carbonitrile, Isomer A; formic acid] |
| 449 | N#Cc1cccc2c1CC(N[C@H]1C[C@@H](C3CN(c4ccc5c(n4)NC(=O)CO5)C(=O)O3)C1)C2 (stereo partly drawn) [Example 19, 2-[[cis-3-[2-oxo-3-(3-oxo-4H-pyrido[3,2-b][1,4]oxazin-6-yl)-1,3-oxazolidin-5-yl]cyclobutyl]amino]-2,3-dihydro-1H-indene-4-carbonitrile; formic acid] |
| < 97.7 | N#Cc1cccc2c1CC(CNCCC1CN(c3cnc4c(n3)NC(=O)CO4)C(=O)O1)C2 (centres unmarked) [Example 35, 2-[[2-[2-oxo-3-(3-oxo-4H-pyrazino[2,3-b][1,4]oxazin-6-yl)-1,3-oxazolidin-5-yl]ethylamino]methyl]-2,3-dihydro-1H-indene-4-carbonitrile] |
| < 97.7 | N#Cc1cccc2c1C(N)C(CNCCC1CN(c3ccc4c(n3)NC(=O)CO4)C(=O)O1)C2 (racemic) [Example 156, rac-2,3-trans-3-amino-2-[[2-[2-oxo-3-(3-oxo-4H-pyrido[3,2-b][1,4]oxazin-6-yl)-1,3-oxazolidin-5-yl]ethylamino]methyl]-2,3-dihydro-1H-indene-4-carbonitrile] |

The remaining lines, values behind:

| Compound | IC50 [nM] |
| --- | --- |
| CNC(=O)COc1ncc2c(c1C)CC(CNCCC1CN(c3ccc4c(n3)NC(=O)CO4)C(=O)O1)C2 (centres unmarked) [Example 223, N-methyl-2-((4-methyl-6-(((2-(2-oxo-3-(3-oxo-3,4-dihydro-2H-pyrido[3,2-b][1,4]oxazin-6-yl)oxazolidin-5-yl)ethyl)amino)methyl)-6,7-dihydro-5H-cyclopenta[c]pyridin-3-yl)oxy)acetamide] | 389 |
| O=C1COc2ncc(N3CC(CCNCC4Cc5cc(OCc6cc[nH]n6)cc(F)c5C4)OC3=O)nc2N1 (centres unmarked) [Example 320, 6-[5-[2-[[4-Fluoro-6-(1H-pyrazol-3-ylmethoxy)-2,3-dihydro-1H-inden-2-yl]methylamino]ethyl]-2-oxo-1,3-oxazolidin-3-yl]-4H-pyrazino[2,3-b][1,4]oxazin-3-one; formic acid] | 202 |
| CS(=O)(=O)N1CC(Oc2cc(F)c3c(c2)CC(CNCCC2CN(c4cnc5c(n4)NC(=O)CO5)C(=O)O2)C3)C1 (centres unmarked) [Example 355, 6-[5-[2-[[4-fluoro-6-(1-methylsalfonylazetidin-3-yl)oxy-2,3-dihydro-1H-inden-2-yl]methylamino]ethyl]-2-oxo-1,3-oxazolidin-3-yl]-4H-pyrazino[2,3-b][1,4]oxazin-3-one hydrochloride] | 162 |
| CNC(=O)COc1ccc2c(c1F)CC(CN1CCC3(CC1)CN(c1cnc4c(n1)NC(=O)CO4)C(=O)O3)C2 (centres unmarked) [Example 336, 2-[[4-fluoro-2-[[2-oxo-3-(3-oxo-4H-pyrazino[2,3-b][1,4]oxazin-6-yl)-1-oxa-3,8-diazaspiro[4.5]decan-8-yl]methyl]-2,3-dihydro-1H-inden-5-yl]oxy]-N-methylacetamide] | < 97.7 |
| Cc1cnc(-c2nc(OCC3(N)CC3)c(C)c3c2CC(CNCCC2CN(c4ccc5c(n4)NC(=O)CO5)C(=O)O2)C3)s1 (centres unmarked) [Example 216, 6-[5-[2-[[3-[(1-aminocyclopropyl)methoxy]-4-methyl-1-(5-methyl-1,3-thiazol-2-yl)-6,7-dihydro-5H-cyclopenta[c]pyridin-6-yl]methylamino]ethyl]-2-oxo-1,3-oxazolidin-3-yl]-4H-pyrido[3,2-b][1,4]oxazin-3-one] | 211 |
| Cc1nc(OCCN)cc2c1CC(CNCCC1CN(c3ccc4c(n3)NC(=O)CO4)C(=O)O1)C2 (centres unmarked) [Example 209, 6-[5-[2-[[3-(2-aminoethoxy)-1-methyl-6,7-dihydro-5H-cyclopenta[c]pyridin-6-yl]methylamino]ethyl]-2-oxo-1,3-oxazolidin-3-yl]-4H-pyrido[3,2-b][1,4]oxazin-3-one] | 845 |
| CC(C)(O)COc1cc(F)c2c(c1)CC(CNCCC1CN(c3cnc4c(n3)NC(=O)CO4)C(=O)O1)C2 (centres unmarked) [Example 292, 6-[5-[2-[[4-fluoro-6-(2-hydroxy-2-methylpropoxy)-2,3-dihydro-1H-inden-2-yl]methylamino]ethyl]-2-oxo-1,3-oxazolidin-3-yl]-4H-pyrazino[2,3-b][1,4]oxazin-3-one] | 403 |
| Cc1ncc(F)c2c1CC(N[C@H]1CC[C@@]3(CC1)CN(c1cnc4c(n1)NC(=O)CO4)C(=O)O3)C2 (some centres unmarked) [Example 298] | 369 |
| Cc1ncc(C#N)c2c1CC(CNCC[C@@H]1CN(c3cnc4c(n3)NC(=O)CO4)C(=O)O1)C2 (stereo partly drawn) [Example 365, 1-methyl-6-[[2-[(5R)-2-oxo-3-(3-oxo-4H-pyrazino[2,3-b][1,4]oxazin-6-yl)-1,3-oxazolidin-5-yl]ethylamino]methyl]-6,7-dihydro-5H-cyclopenta[c]pyridine-4-carbonitrile] | < 97.7 |
| N[C@H]1c2cccc(Cl)c2C[C@@H]1CNCC[C@@H]1CN(c2cnc3c(n2)NC(=O)CO3)C(=O)O1 [Example 403, 6-[(5R)-5-[2-[[(1R,2R)-1-amino-4-chloro-2,3-dihydro-1H-inden-2-yl]methylamino]ethyl]-2-oxo-1,3-oxazolidin-3-yl]-4H-pyrazino[2,3-b][1,4]oxazin-3-one] | < 97.7 |

Same assay, conditions: strain Escherichia coli ATCC 25922; 10-point broth dilution, optical density at 600 nm over 16 h; read-out: Escherichia coli growth inhibition IC50

| IC50 [nM] | Compound |
| --- | --- |
| 957 | Cc1ncc(F)c2c1CC(NCC(O)CC1CN(c3cnc4c(n3)NC(=O)CO4)C(=O)O1)C2 (single isomer, unassigned; isomer d) [Example 316, 6-[2-Oxo-5-[3-[(4-fluoro-1-methyl-6,7-dihydro-5H-cyclopenta[c]pyridin-6-yl)amino]-2-hydroxypropyl]-1,3-oxazolidin-3-yl]-4H-pyrazino[2,3-b][1,4]oxazin-3-one; formic acid, Isomer D] |
| 1180 | Cc1ncc(F)c2c1CC(NCC(O)CC1CN(c3cnc4c(n3)NC(=O)CO4)C(=O)O1)C2 (single isomer, unassigned; isomer b) [Example 314, 6-[2-Oxo-5-[3-[(4-fluoro-1-methyl-6,7-dihydro-5H-cyclopenta[c]pyridin-6-yl)amino]-2-hydroxypropyl]-1,3-oxazolidin-3-yl]-4H-pyrazino[2,3-b][1,4]oxazin-3-one; formic acid, Isomer B] |
| < 97.7 | CC(C)(N)COc1cc(F)c2c(c1)CC(CN1CCC3(CC1)CN(c1cnc4c(n1)NC(=O)CO4)C(=O)O3)C2 (single isomer, unassigned; enantiomer b) [Example 378, 6-[8-[[6-(2-Amino-2-methylpropoxy)-4-fluoro-2,3-dihydro-1H-inden-2-yl]methyl]-2-oxo-1-oxa-3,8-diazaspiro[4.5]decan-3-yl]-4H-pyrazino[2,3-b][1,4]oxazin-3-one; formic acid, Enantiomer B] |

From patent US20230167127A1, “COMPOUNDS AND THEIR USE IN THE TREATMENT OF BACTERIAL INFECTION” (Hoffmann-La Roche Inc., priority 2020, published 2023)
